Experimental data: patent US20230365554A1, “SUBSTITUTED PYRROLO-PYRIDINONE DERIVATIVES AND THERAPEUTIC USES THEREOF” (The Broad Institute, Inc., priority 2020, published 2023)
Values joined by “and” are separate entries in the source; they are usually repeats but may differ in a detail not shown here. Identical values can stand only once.

Assays:
[1] = biological target: wild-type Epidermal Growth Factor Receptor (EGFR) (Homo sapiens (Human), UniProt P00533); assay: WT-EGFR kinase assay (TR-FRET, 2 mM ATP); assay type: biochemical; settings: median or individual measurements, Table 3, read-out: EGFR Wildtyp-2mM ATP IC50 [mol/l] (median)
wild-type Epidermal Growth Factor Receptor (EGFR), sequence (P00533 669-1210): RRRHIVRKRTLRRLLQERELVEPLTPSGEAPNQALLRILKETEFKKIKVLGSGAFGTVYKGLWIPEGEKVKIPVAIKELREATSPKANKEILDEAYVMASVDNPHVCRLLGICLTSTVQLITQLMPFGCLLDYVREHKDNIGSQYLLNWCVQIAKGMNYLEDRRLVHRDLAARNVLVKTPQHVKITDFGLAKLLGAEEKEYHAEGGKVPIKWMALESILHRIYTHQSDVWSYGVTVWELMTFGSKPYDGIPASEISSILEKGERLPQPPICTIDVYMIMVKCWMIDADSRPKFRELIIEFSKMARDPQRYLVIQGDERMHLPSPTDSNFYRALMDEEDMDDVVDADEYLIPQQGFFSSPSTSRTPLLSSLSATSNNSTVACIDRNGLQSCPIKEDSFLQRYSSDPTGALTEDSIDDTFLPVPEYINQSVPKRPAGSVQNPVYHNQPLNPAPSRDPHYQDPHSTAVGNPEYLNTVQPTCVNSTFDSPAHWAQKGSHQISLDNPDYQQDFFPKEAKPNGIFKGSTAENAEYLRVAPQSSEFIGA
Method in brief: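 GST-fused human EGFR (R669–A1210, Sf9-expressed) pre-incubated 15 min with compound, then reacted 30 min at 22° C with 2 mM ATP and 1 μM biotinylated peptide in Hepes pH 7.0 buffer. Phosphopeptide detected by HTRF (Tb anti-phosphotyrosine/streptavidin-XL665, 665/620 nm ratio); normalised to no-inhibitor and no-enzyme controls.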

human CSNK1D = human CSNK1D (Homo sapiens (Human), UniProt P48730); assay: CSNK1D assay (ADP-Glo, 1 μM ATP); assay type: biochemical; settings: median, Table 2, read-out: CSNK1D IC50 [mol/l] (median)
human CSNK1D, sequence (P48730 whole entry): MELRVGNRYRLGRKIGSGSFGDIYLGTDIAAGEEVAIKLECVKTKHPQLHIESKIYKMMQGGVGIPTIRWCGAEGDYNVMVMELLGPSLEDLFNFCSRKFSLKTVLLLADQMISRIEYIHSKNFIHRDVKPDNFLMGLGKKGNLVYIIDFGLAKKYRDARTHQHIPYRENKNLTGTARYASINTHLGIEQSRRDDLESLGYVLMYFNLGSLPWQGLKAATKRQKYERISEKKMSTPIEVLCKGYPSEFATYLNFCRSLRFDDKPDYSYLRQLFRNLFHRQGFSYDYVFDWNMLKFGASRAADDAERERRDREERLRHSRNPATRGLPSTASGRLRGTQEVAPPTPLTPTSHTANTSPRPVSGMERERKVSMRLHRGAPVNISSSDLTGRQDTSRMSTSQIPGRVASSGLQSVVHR
Method in brief: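 GST-tagged full-length human CSNK1D (baculovirus/insect cell; typically about 0.5 ng/μL) preincubated with compound 15 min, then reacted 30 min at 22 °C with 1 μM ATP and 30 μM biotinylated peptide (final) in HEPES pH 7.5 buffer. ADP quantified by ADP-Glo luminescence; data normalised to no-inhibitor and no-enzyme controls.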

| SMILES | IC50 [1] | IC50 (human CSNK1D) [µM] |
| --- | --- | --- |
| Cn1ccc2[nH]c(-c3ccnc(NC(=O)C(CC(F)F)c4ccc(F)cc4)c3)c(Nc3ccccc3)c2c1=O (racemic) [Example 28, N-[4-(3-anilino-5-methyl-4-oxo-4,5-dihydro-1H-pyrrolo[3,2-c]pyridin-2-yl)pyridin-2-yl]-4,4-difluoro-2-(4-fluorophenyl)butanamide] | 12 µM | 0.0081 |
| Cn1cc(CC(F)F)c2[nH]c(-c3ccnc(NC(=O)Cc4ccc(F)cc4)c3)c(Nc3ccccc3)c2c1=O [Example 45, N-{4-[3-anilino-7-(2,2-difluoroethyl)-5-methyl-4-oxo-4,5-dihydro-1H-pyrrolo[3,2-c]pyridin-2-yl]pyridin-2-yl}-2-(4-fluorophenyl)acetamide] | 0.15 µM | 0.0097 |
| Cn1cc(CC2CC2)c2[nH]c(-c3ccnc(NC(=O)Cc4ccc(F)cc4)c3)c(Nc3ccccc3)c2c1=O [Example 32, N-{4-[3-anilino-7-(cyclopropylmethyl)-5-methyl-4-oxo-4,5-dihydro-1H-pyrrolo[3,2-c]pyridin-2-yl]pyridin-2-yl}-2-(4-fluorophenyl)acetamide] | 0.86 µM | 0.036 |
| CC1CN(C)C(=O)c2c1[nH]c(-c1ccnc(NC(=O)Cc3ccc(F)cc3)c1)c2Nc1ccccc1 (single isomer, unassigned; (+)) [Example 8, (+)-N-{4-[3-anilino-5,7-dimethyl-4-oxo-4,5,6,7-tetrahydro-1H-pyrrolo[3,2-c]pyridin-2-yl]pyridin-2-yl}-2-(4-fluorophenyl)acetamide] | 3 µM | 0.026 |
| CN1CC(CC(F)(F)F)c2[nH]c(-c3ccnc(NC(=O)Cc4ccc(F)cc4)c3)c(Nc3cscn3)c2C1=O (single isomer, unassigned) [Example 48, 2-(4-fluorophenyl)-N-{4-[(7R or S)-5-methyl-4-oxo-3-(1,3-thiazol-4-ylamino)-7-(2,2,2-trifluoroethyl)-4,5,6,7-tetrahydro-1H-pyrrolo[3,2-c]pyridin-2-yl]pyridin-2-yl}acetamide] | > 20 µM | 0.032 |
| CN1CC(CC(F)(F)F)c2[nH]c(-c3ccnc(NC(=O)C(CC(F)F)c4ccc(F)cc4)c3)c(Nc3cscn3)c2C1=O (single isomer, unassigned) [Example 55, (2R or S)-4,4-difluoro-2-(4-fluorophenyl)-N-{4-[(7R or S)-5-methyl-4-oxo-3-[(1,3-thiazol-4-yl)amino]-7-(2,2,2-trifluoroethyl)-4,5,6,7-tetrahydro-1H-pyrrolo[3,2-c]pyridin-2-yl]pyridin-2-yl}butanamide] | 10.8 µM and 9.47 µM | 0.11 |
| Cn1cc(CC(F)(F)F)c2[nH]c(-c3ccnc(NC(=O)C(CC(F)F)c4ccc(F)cc4)c3)c(Nc3ccccc3)c2c1=O (single isomer, unassigned) [Example 36, N-{4-[3-anilino-5-methyl-4-oxo-7-(2,2,2-trifluoroethyl)-4,5-dihydro-1H-pyrrolo[3,2-c]pyridin-2-yl]pyridin-2-yl}-4,4-difluoro-2-(4-fluorophenyl)butanamide] | 1.1 µM | 0.0076 |
| CN1CC(CC2CC2)c2[nH]c(-c3ccnc(NC(=O)Cc4ccc(F)cc4)c3)c(Nc3cscn3)c2C1=O (single isomer, unassigned) [Example 51, N-{4-[(7R or S)-7-(cyclopropylmethyl)-5-methyl-4-oxo-3-(1,3-thiazol-4-ylamino)-4,5,6,7-tetrahydro-1H-pyrrolo[3,2-c]pyridin-2-yl]pyridin-2-yl}-2-(4-fluorophenyl)acetamide] | 17.2 µM and > 20 µM | 0.057 |
| Cc1cn(C)c(=O)c2c(Nc3ccccc3)c(-c3ccnc(NC(=O)C(C)c4ccc(F)cc4)c3)[nH]c12 (single isomer, unassigned) [Example 40, N-[4-(3-anilino-5,7-dimethyl-4-oxo-4,5-dihydro-1H-pyrrolo[3,2-c]pyridin-2-yl)pyridin-2-yl]-2-(4-fluorophenyl)propanamide] | 17 µM | 0.019 |
